In general, tissue uptake refers to the share of the injected amount in each gram of the tissue. Broadly, the Vd is a proportionality between amount in the body and measured concentration, not a real space. For orientation: clearance means the rate of elimination divided by the concentration. Low readings indicate a low capacity for elimination, high ones a high capacity for elimination.

Where two headings read alike, the source gives them in different places.

Here are results for two compounds from publication PMC7238042, “π-π-Stacked Poly(ε-caprolactone)-b-poly(ethylene glycol) Micelles Loaded with a Photosensitizer for Photodynamic Therapy” (Pharmaceutics, 2020).

One series concerns A431 cells. Also on record: method as in PMID 32142290. The settings on record: same conditions, cited from earlier work.
Series [1] in a line: Biodistribution in A431 tumor-bearing mice (Cy7 fluorescence and mTHPC HPLC). The settings on record: 4 h.
Protocol: (§1) Mice were inoculated with 1 × 10^6 A431 cells suspended in 100 μL PBS subcutaneously into the right flank. […] Tumors were measured using a digital caliper. The tumor volume V (in mm^3) was calculated using the equation V = (π/6)LS^2, in which L is the largest and S is the smallest superficial diameter [30].
(§2) Tumors and a panel of organs (spleen, liver, lung, heart, kidney, skin, femur, and brain) were excised and imaged ex vivo by 2D fluorescence reflectance imaging (FRI) using a Pearl Trilogy imager from LI-COR and then stored at −80 °C until further processing for quantification. Organs and tumors from three untreated animals were used as controls.
(§3) To quantify the content of mTHPC and micelles in the tumors and the different organs, the excised tissue samples were treated as follows. First, 100 μL of RIPA lysis buffer was added to 100 mg of sliced tissues or organs. The mixture was homogenized by a tissue grinder (Percellys 24) at a speed of 6000/s for 60 s (for femur samples, 6000/s for 180 s) and the homogenate was subsequently aliquoted. To determine the mTHPC concentration in the samples, 1 volume of an aliquot of the homogenate (30 μL) was mixed with 120 μL of acetonitrile/DMSO (4:1 v/v) and vortexed for 1 min. The mixture was then centrifuged at 15,000× g for 10 min. Next, 50 μL of the obtained supernatant was injected into the HPLC system consisting of a Waters X Select Charged Surface Hybrid (CSH) C18 3.5 μm 4.6 × 150 mm column coupled with a fluorescence detector set at λex 420 nm and λem 650 nm to analyze mTHPC concentration [38]. The mobile phase was 0.1 % trifluoroacetic acid in acetonitrile/water (60:40, v/v) at a flow rate of 1 mL/min. The measuring range was from 0.005 to 4 μg/mL and the detection limit was 5 ng/mL. Calibration curves were obtained from a series of standard solutions of mTHPC in DMSO, to which 45 μL of the corresponding homogenized tissue samples obtained from control mice (i.e., not treated with any formulations) was added, followed by mTHPC extraction using acetonitrile/DMSO (4:1, v/v) and HPLC analysis.
(§4) To determine the concentration of Cy7-labeled micelles in the tissue homogenates, 1 volume of another aliquot of the homogenate (30 μL) was vortex-mixed with 2 volumes of RIPA lysis buffer (60 μL) for 1 min. The fluorescence of Cy7 in the mixture (20 μL) was detected at the 800 nm channel (i.e., λex 785 nm and λem 820 nm), using a LI-COR Odyssey scanner imaging system, and a calibration curve was obtained using samples with different concentrations of Cy7-labeled copolymer in a mixture of RIPA buffer (1 volume) and the corresponding homogenized tumor or organ samples (2 volumes) obtained from non-treated mice.
In the next series the test system is cells. Details: method as in PMID 32142290. The conditions noted are these: cited from earlier work.
Series [2] in a line: in vivo. The conditions noted are these: female, Balb/c nude, mouse, intravenous, 0.3 mg/kg.
Protocol: as §1, §2, §3, §4
A short description of series [3]: Circulation kinetics in A431 tumor-bearing mice (plasma Cy7 and mTHPC). The settings on record: mTHPC detection, i.v. 300 µg mTHPC/kg.
Protocol: as §1
(§5) For the latter, mice were killed through cervical dislocation while under deep isoflurane anesthesia. […] The plasma supernatant was collected, extracted using acetonitrile/DMSO (4:1, v/v), and analyzed by high-performance liquid chromatography (HPLC) and a LI-COR Odyssey imaging system to quantify the amount of mTHPC and Cy7-labeled micelles, respectively, as previously described [38]. Plasma concentration curves were analyzed by non-compartmental analysis with the PKSolver add-in for Microsoft Excel [40].
The test system of a further series is HeLa cells. Also on record: method as in PMID 32142290. The settings on record: cited from earlier work.
Series [4] in a line: in vivo. The settings on record: female, Balb/c nude, mouse, plasma, iv, 300 ug/kg.
Protocol: as §1, §5
Series [5] in a line: Side effects after i.v. administration in mice. It counts as in vivo, Balb/c nude mice.
On the set-up of series [6]: method as in PMID 25388924. The conditions noted are these: cited from earlier work.

`Oc1cccc(-c2c3nc(c(-c4cccc(O)c4)c4ccc([nH]4)c(-c4cccc(O)c4)c4nc(c(-c5cccc(O)c5)c5ccc2[nH]5)CC4)C=C3)c1` [Free mTHPC, meta-tetra(hydroxyphenyl)chlorin]: the EC50 with A431 cells (listed as free mTHPC) is ~ 1.5 µg/mL; with A431 cells, 1.6 ± 0.1 [38] µg/mL; in the series on HeLa cells, 1.2 [38] µg/mL; with HeLa cells (listed as free mTHPC), ~ 1.5 µg/mL. Also, the “total mTHPC accumulation in liver” value in [1] is ~ 15 % ID per liver. The “total mTHPC accumulation in spleen or lung” value in [1] is listed as ~ 1 % ID per spleen or lung. Also, the “mTHPC concentration toxic to cells without illumination” value is reported as “higher than 50 µg/mL” with cells (after 7 h) and greater than 20 µg/mL in the series on cells (after 24 h). Further, the tissue uptake at 4 h in the series “in vivo [2]” (liver) is roughly 15 %ID/g. Moreover, the tissue uptake at 24 h in “in vivo [2]” (liver) is roughly 5 %ID/g; in “in vivo [2]” (tumor, kidney, heart, femur) it was 2 to 3 %ID/g. In [3], this compound showed an AUC of 442 h*%. Further, in series [3] (estimated from first hour), the “Half-life Phase α” value is given as no more than 0.5 h. Further, the “Half-life Phase β” value in series [3] (non-compartmental analysis) amounted to 2.1 h. This compound showed a volume of distribution (Vd) in the series “in vivo [4]” of 0.12 L/kg. This compound also showed a clearance in the series “in vivo [4]” of 0.22 mL/min/kg. In addition, the “side effects after i.v. administration” value in [5] (300 µg mTHPC/kg, free mTHPC in ethanol/propylene glycol/PBS 20:30:50, micelles ~1 mg polymer, also reported in ref 38) is recorded as “tachypnea, passiveness immediately post-injection”. Also, in series [5] (on average, within 24 h after i.v. injection), the “loss of body weight” value is listed as ~ 1 g.
In the case of “axially solketal-substituted silicon phthalocyanine [Si(sol)2Pc]”, the quenching concentration in series [6] (in aromatic-substituted thermosensitive micelles, 0.45 mg/mL polymer) is recorded as 16 µg/mL; in [6] (in corresponding non-aromatic micelles) it was ~ 0.05 µg/mL.
